Assay results from patent US20070060636A1, “High enantiomeric purity dexanabinol for pharmaceutical compositions” (priority 2002, published 2007).
Read-outs that look alike come from different tables or passages of the source.

Tests used:
[1] = in vivo; cited from earlier work
[2] = ocular toxicity, topical instillation for five days four times daily; type: in vivo, rabbits; conditions: dexanabinol in SME, slit lamp
Protocol: Ocular toxicity was tested as follows. Two groups of five animals each received topical instillation of dexanabinol in SME and blank SME for five days four times daily. The animals were examined daily with a slit lamp for ocular discharge, conjunctival hyperemia, corneal fluorescein staining and iris hyperemia. Results were scored on a 0.0-4.0 scale in 0.5 steps.

[3] = plasma and brain concentrations after bolus i.v. 4 mg/kg; type: in vivo, Sprague Dawley rats
Protocol: The pharmacokinetics of dexanabinol of high enantiomeric purity formulated in CREMOPHOR EL®:ethanol as described in Example 4 were investigated in rats, rabbits, and monkeys following intravenous administration of single doses, and 14 and 28 days of repeated dosing. Human pharmacokinetics was studied during Phase I and Phase II clinical studies. Dexanabinol used in the pharmacokinetic studies was formulated as drug concentrates of 50 and 100 mg/ml and diluted with sterile 0.9% NaCl solution prior to intravenous (i.v.) administration to the desired final doses. Determination of dexanabinol concentrations in plasma and brain extracts was carried out using a validated Gas Chromatography-Mass Spectra (GC-MS) assay following solid phase extraction of the drug and derivatization. The limit of quantitation of the assay is 0.1 ng/ml.
Brain pharmacokinetic parameters in animal studies were estimated by non-compartmental methods similar to those used for plasma data with the addition of an estimate of the time of maximum concentration (Tmax) which was assumed to be zero for the plasma data. Cmax is the concentration corresponding to Tmax. AUCz and AUC∞ were calculated as described above. Kp, brain-to-plasma partition coefficient, was determined by means of the area method and using the equation: Kp=AUC∞ brain/AUC∞ plasma […]

[4] = Phase II study, single i.v. dose in patients with severe head trauma; type: in vivo, human; conditions: human, plasma, iv, severe TBI patients, mean ± SE; for AUC / Cmax: up to 24 hr; for Vd: read-out: Vss
Protocol: (§1) A Phase II, double masked, multi-center study was conducted to evaluate the safety and tolerance of dexanabinol of high enantiomeric purity following a single intravenous administration in patients with severe head trauma (Knoller N. et al., Crit. Care Med. 30: 548-54, 2002). Treatment was administered within 6 hours of injury, based on the therapeutic window observed in relevant animal models. Additional objectives of the study were to evaluate the long-term outcome of the patients and to determine the optimal dose for Phase III studies.
(§2) Medical information was collected en route or upon arrival at the hospital to determine a patient's suitability for enrollment and a randomized patient number was assigned. Written informed consent was obtained from relatives, all eligible patients being in coma. Antihistamines (promethazine hydrochloride PHENERGAN® 25 mg and cimetidine 50 mg) were administered by intravenous bolus injection 15 minutes prior to study drug administration. Dexanabinol was manufactured and formulated as previously described (50 mg/ml in CREMOPHOR EL®:ethanol clinical formulation) and diluted into 100 ml saline prior to injection. Solutions of dexanabinol were infused intravenously using a peristaltic pump (Ivac) at a rate of 6 ml/min (or approximately 15 min/dose). The total doses of dexanabinol scheduled to be administered were 48, 150, or 200 mg per patient. Five milliliters of blood were removed (from the contralateral arm) at the end of the infusion, at 10 and 30 min, and at 1, 3, 6, 12, and 24 hours thereafter for determination of plasma dexanabinol concentrations. Pharmacokinetic parameters were estimated by non-compartmental methods (WinNonlin Professional version 3.2) up to 24 hr post-injection.
(§3) Primary end points included intracranial pressure (ICP), cardiovascular function (heart rate, mean arterial blood pressure, cerebral perfusion pressure and electrocardiogram), clinical laboratory tests, and adverse medical events. The clinical outcome was assessed by the Glasgow outcome scale throughout a six month follow-up period. The nature and incidence of adverse medical events were similar in all groups supporting the safety of dexanabinol of high enantiomeric purity. […] Dexanabinol is currently being tested in a Phase III clinical trial for TBI.

[5] = tested on: severe traumatic brain injury (TBI); test: as above; type: in vivo, human; conditions: for AUC∞/Dose: severe TBI patients, mean ± SE, normalized for dose (mg/kg)
Protocol: as §1, §2, §3

[6] = 48 mg single i.v. infusion (n = 10)
[7] = 150 mg single i.v. infusion (n = 20)
[8] = 200 mg single i.v. infusion (n = 21)

In the case of `CCCCCCC(C)(C)c1cc(O)c2c(c1)OC(C)(C)[C@H]1CC=C(CO)C[C@H]21` [dexanabinol, 1,1-dimethylheptyl-(3S,4S)-7-hydroxy-Δ^6-tetrahydrocannabinol], the cardiovascular effects [1] is listed as “devoid of cardiovascular effects”, the “conjunctival injection and discharge” value [2] is listed as “mild conjunctival injection and discharge that did not significantly differ from SME-blank treated animals” and the “corneal staining, corneal opacities and iris hyperemia” value [2] is listed as “did not occur in any of the animals”. For the same compound, the “time after injection at which brain concentrations equilibrated with plasma concentration” value ([3]; male and female averaged) was “about 30 minutes”, the “differences between genders in some plasma pharmacokinetic parameters” value ([3]; plasma) was 2-3 fold and the AUC(0-inf) [4, 6] was 572 ng·h/mL. For the same compound, the MRT [4, 6] was 4.1 ± 0.7 h, the clearance [4, 6] was 22.6 ± 3.9 mL/min/kg and the half-life [4, 6] was 7 ± 0.9 h. It also gave an AUC [4, 6] of 548 ng·h/mL, a Cmax [4, 6] of 1150 ng/mL and a Vd [4, 6] of 6.6 ± 2.6 L/kg. The AUC(0-inf) [4, 7] was 1480 ng·h/mL, the MRT [4, 7] was 3.8 ± 0.4 h and the clearance [4, 7] was 31 ± 5.8 mL/min/kg. The half-life [4, 7] was 5.3 ± 0.5 h, the AUC [4, 7] was 1450 ng·h/mL and the Cmax [4, 7] was 1970 ng/mL. The Vd [4, 7] was 7.5 ± 1.5 L/kg, the AUC(0-inf) [4, 8] was 3250 ng·h/mL and the MRT [4, 8] was 3.5 ± 0.3 h. For the same compound, the clearance [4, 8] was 17.6 ± 1.9 mL/min/kg, the half-life [4, 8] was 6.3 ± 0.3 h and the AUC [4, 8] was 3170 ng·h/mL. For the same compound, the Cmax [4, 8] was 5790 ng/mL, the Vd [4, 8] was 4.2 ± 0.9 L/kg and the “AUC∞/Dose” value [5, 6] was 51,846 ± 5,526 ng × min/ml. The “AUC∞/Dose” value [5, 7] was 43,542 ± 4,329 ng × min/ml, the “AUC∞/Dose” value [5, 8] was 69,007 ± 5,835 ng × min/ml and the neurological outcome ([5]; Glasgow outcome scale, six month follow-up) was “trend toward faster and better neurological outcome”. For the same compound, the “Cmax Ratio to Phase II” value ([5]; human Phase II, 150 mg single i.v., reference itself) was 1.0, the “safety in severe head injury” value ([5]; single i.v. 48, 150 or 200 mg within 6 hours of injury) was “safe and well tolerated” and the “intracranial pressure/cerebral perfusion pressure control” value ([5]; treated patients, without jeopardizing blood pressure) was “significantly better”.
